From ChEMBL document CHEMBL1201862, “PubChem BioAssay data set” (2004)
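Each compound was tested at five concentrations against cells in 96-well plates for 48 hours. GI50 marks 50% less growth.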 Calls of active or inactive are those of the source. Rule as the data show it: active = GI50 up to about 1.1 µM and inactive = higher.

Key:
Test in all cases: DTP human tumour cell line panel, 48 h
U-251 = test system: U-251
OVCAR-5 = test system: OVCAR-5
ACHN = test system: ACHN
HCC 2998 = test system: HCC 2998
MOLT-4 = test system: MOLT-4
SK-MEL-5 = test system: SK-MEL-5
NCI-H460 = test system: NCI-H460
M14 = test system: M14
OVCAR-4 = test system: OVCAR-4
SF-268 = test system: SF-268
SN12C = test system: SN12C
RXF 393 = test system: RXF 393
MCF7 = test system: MCF7
SK-MEL-2 = test system: SK-MEL-2
DU-145 = test system: DU-145
NCI-H522 = test system: NCI-H522
MDA-MB-231 = test system: MDA-MB-231
SR = test system: SR

Compound | GI50 (U-251) | GI50 (OVCAR-5) | GI50 (ACHN) | GI50 (HCC 2998) | GI50 (MOLT-4) | GI50 (SK-MEL-5) | GI50 (NCI-H460) | GI50 (M14) | GI50 (OVCAR-4) | GI50 (SF-268) | GI50 (SN12C) | GI50 (RXF 393) | GI50 (MCF7) | GI50 (SK-MEL-2) | GI50 (DU-145) | GI50 (NCI-H522) | GI50 (MDA-MB-231) | GI50 (SR)
CCOC(=O)/C(C#N)=C(O)/C(=C\c1ccc(Br)cc1)NC(=O)c1ccccc1 | > 100 µM (inactive) | > 100 µM (inactive) | > 100 µM (inactive) | > 100 µM (inactive) | > 100 µM (inactive) | > 100 µM (inactive) | > 100 µM (inactive) | > 100 µM (inactive) | > 100 µM (inactive) | > 100 µM (inactive) | > 100 µM (inactive) | – | – | – | – | – | – | –
COc1ccc2occ(CCC(=O)O)c2c1 | > 100 µM (inactive) | – | > 100 µM (inactive) | > 100 µM (inactive) | > 100 µM (inactive) | > 100 µM (inactive) | > 100 µM (inactive) | > 100 µM (inactive) | > 100 µM (inactive) | – | > 100 µM (inactive) | > 100 µM (inactive) | – | – | – | – | – | –
Cc1n[nH]c(=O)n1/N=C/c1c[nH]c2ccccc12 | > 100 µM (inactive) | 83.4 µM (inactive) | > 100 µM (inactive) | > 100 µM (inactive) | > 100 µM (inactive) | – | > 100 µM (inactive) | > 100 µM (inactive) | > 100 µM (inactive) | > 100 µM (inactive) | > 100 µM (inactive) | 20.9 µM (inactive) | > 100 µM (inactive) | > 100 µM (inactive) | > 100 µM (inactive) | > 100 µM (inactive) | > 100 µM (inactive) | > 100 µM (inactive)
Nc1nc(Cl)cc(NCCCCCNc2cc(Cl)nc(N)n2)n1 | > 100 µM (inactive) | 37.4 µM (inactive) | 15.2 µM (inactive) | > 100 µM (inactive) | 7.48 µM (inactive) | 23.5 µM (inactive) | > 100 µM (inactive) | 88.3 µM (inactive) | 34.8 µM (inactive) | 29.1 µM (inactive) | > 100 µM (inactive) | 58.3 µM (inactive) | – | > 100 µM (inactive) | – | 20 µM (inactive) | – | 38.7 µM (inactive)
Cc1cccc(C)c1NC(=O)CCC/C(CC(=O)c1ccc(F)cc1)=N\NC(=O)C(=O)NN | > 100 µM (inactive) | > 100 µM (inactive) | > 100 µM (inactive) | > 100 µM (inactive) | > 100 µM (inactive) | > 100 µM (inactive) | > 100 µM (inactive) | > 100 µM (inactive) | > 100 µM (inactive) | > 100 µM (inactive) | > 100 µM (inactive) | 21.9 µM (inactive) | – | > 100 µM (inactive) | – | – | – | –
O=C1CC[C@@H](S(=O)(=O)c2ccccc2)[C@H](/C=C/c2ccccc2)O1 | > 100 µM (inactive) | > 100 µM (inactive) | > 100 µM (inactive) | > 100 µM (inactive) | > 100 µM (inactive) | > 100 µM (inactive) | > 100 µM (inactive) | > 100 µM (inactive) | > 100 µM (inactive) | – | > 100 µM (inactive) | > 100 µM (inactive) | – | – | – | > 100 µM (inactive) | – | > 100 µM (inactive)
COc1cc2c(c(OC)c1)C(=O)C(=O)C(CC1(C)OCCCO1)=C2 | 15.3 µM (inactive) | 22.9 µM (inactive) | 6.61 µM (inactive) | 16.4 µM (inactive) | 3.27 µM (inactive) | 6.05 µM (inactive) | 13.3 µM (inactive) | 12 µM (inactive) | 6.22 µM (inactive) | 14.7 µM (inactive) | 13.2 µM (inactive) | 4.38 µM (inactive) | – | 16 µM (inactive) | – | 1.4 µM (inactive) | – | 3.3 µM (inactive)
Nc1nc2c(c(=O)[nH]1)NC(CO)CN2 (stereo not drawn) | > 100 µM (inactive) | – | 79.4 µM (inactive) | – | 37.1 µM (inactive) | – | > 100 µM (inactive) | > 100 µM (inactive) | – | – | > 100 µM (inactive) | > 100 µM (inactive) | – | – | – | > 100 µM (inactive) | – | –
O=C(/C=C/c1ccc([N+](=O)[O-])o1)N1CCN(Cc2ccccc2)CC1 | 14 µM (inactive) | 17.3 µM (inactive) | 14.7 µM (inactive) | 15.7 µM (inactive) | 11.6 µM (inactive) | 10.2 µM (inactive) | 11.2 µM (inactive) | 4.66 µM (inactive) | 15.6 µM (inactive) | 14 µM (inactive) | 9.04 µM (inactive) | 11.8 µM (inactive) | – | – | – | 2.82 µM (inactive) | – | 13 µM (inactive)
COc1cccc(NC(=O)CC(=O)N2N=C(n3ccc4ccccc43)CC2c2ccccc2)c1 (stereo not drawn) | > 100 µM (inactive) | > 100 µM (inactive) | > 100 µM (inactive) | > 100 µM (inactive) | > 100 µM (inactive) | – | > 100 µM (inactive) | > 100 µM (inactive) | > 100 µM (inactive) | > 100 µM (inactive) | > 100 µM (inactive) | > 100 µM (inactive) | – | > 100 µM (inactive) | – | > 100 µM (inactive) | – | –
CN(C)C(=O)CC(C(=O)O)c1c[nH]c2ccccc12 (stereo not drawn) | > 100 µM (inactive) | – | > 100 µM (inactive) | > 100 µM (inactive) | > 100 µM (inactive) | > 100 µM (inactive) | > 100 µM (inactive) | > 100 µM (inactive) | > 100 µM (inactive) | – | > 100 µM (inactive) | 10.2 µM (inactive) | – | > 100 µM (inactive) | – | > 100 µM (inactive) | – | > 100 µM (inactive)
CCC(=O)OC1CCn2c1nc1c2C(=O)C(C)=C(NC(C)=O)C1=N (stereo not drawn) | 3.74 µM (inactive) | 1.87 µM (inactive) | 1.77 µM (inactive) | 3.4 µM (inactive) | 1.54 µM (inactive) | 1.29 µM (inactive) | 1.47 µM (inactive) | – | 1.35 µM (inactive) | 2.54 µM (inactive) | 1.6 µM (inactive) | – | – | 1.75 µM (inactive) | – | 1.39 µM (inactive) | – | 2 µM (inactive)
CC1Cc2c(N)nc(NN)nc2NC1=O (stereo not drawn) | > 100 µM (inactive) | – | > 100 µM (inactive) | – | > 100 µM (inactive) | > 100 µM (inactive) | > 100 µM (inactive) | > 100 µM (inactive) | – | – | > 100 µM (inactive) | > 100 µM (inactive) | – | – | – | > 100 µM (inactive) | – | –
C=C(COC(C)=O)CC(/C=C(\C)CC/C=C(\C)CO)OC(C)=O (stereo not drawn) | > 100 µM (inactive) | > 100 µM (inactive) | > 100 µM (inactive) | > 100 µM (inactive) | 35.1 µM (inactive) | > 100 µM (inactive) | > 100 µM (inactive) | > 100 µM (inactive) | > 100 µM (inactive) | > 100 µM (inactive) | > 100 µM (inactive) | > 100 µM (inactive) | – | > 100 µM (inactive) | – | > 100 µM (inactive) | – | –
O=C(Cn1ccnc1[N+](=O)[O-])c1ccccc1 | – | > 100 µM (inactive) | > 100 µM (inactive) | > 100 µM (inactive) | > 100 µM (inactive) | > 100 µM (inactive) | > 100 µM (inactive) | > 100 µM (inactive) | > 100 µM (inactive) | > 100 µM (inactive) | > 100 µM (inactive) | > 100 µM (inactive) | – | > 100 µM (inactive) | – | > 100 µM (inactive) | – | –
COC(=O)c1c2cccccc-2c(Cc2c3cccccc-3c(C(=O)OC)c2O)c1O | > 100 µM (inactive) | > 100 µM (inactive) | > 100 µM (inactive) | > 100 µM (inactive) | > 100 µM (inactive) | > 100 µM (inactive) | > 100 µM (inactive) | > 100 µM (inactive) | > 100 µM (inactive) | > 100 µM (inactive) | > 100 µM (inactive) | – | – | > 100 µM (inactive) | – | > 100 µM (inactive) | – | > 100 µM (inactive)
COc1ccc2[nH]c3c4c(cc(-c5ccccc5)c3c2c1)C(=O)N(c1ccccc1)C4=O | 5.98 µM (inactive) | > 100 µM (inactive) | > 41.5 µM (inactive) | > 100 µM (inactive) | 19.5 µM (inactive) | 12.3 µM (inactive) | 9.73 µM (inactive) | 19.3 µM (inactive) | 0.411 µM (active) | 23.1 µM (inactive) | 21.5 µM (inactive) | 13 µM (inactive) | – | 21.3 µM (inactive) | – | 8.24 µM (inactive) | – | 1.77 µM (inactive)
CC(=O)N1CC(=O)NC1=S | > 100 µM (inactive) | > 100 µM (inactive) | > 100 µM (inactive) | – | > 100 µM (inactive) | > 100 µM (inactive) | – | > 100 µM (inactive) | > 100 µM (inactive) | > 100 µM (inactive) | > 100 µM (inactive) | – | – | > 100 µM (inactive) | – | > 100 µM (inactive) | – | > 100 µM (inactive)
Cn1cnc([N+](=O)[O-])c1Sc1nccn1-c1cccc2ccccc12 | 26.2 µM (inactive) | 23.2 µM (inactive) | 26.4 µM (inactive) | 45.5 µM (inactive) | 12.9 µM (inactive) | 29.2 µM (inactive) | 25.7 µM (inactive) | 18.8 µM (inactive) | 24 µM (inactive) | 24.8 µM (inactive) | 31.7 µM (inactive) | – | – | 14.1 µM (inactive) | – | 8.69 µM (inactive) | – | 15.8 µM (inactive)
Cc1ccc(C)c(NC(=O)CCc2n[nH]c(=S)o2)c1 | > 100 µM (inactive) | > 100 µM (inactive) | > 100 µM (inactive) | > 100 µM (inactive) | > 100 µM (inactive) | > 100 µM (inactive) | > 100 µM (inactive) | > 100 µM (inactive) | > 100 µM (inactive) | > 100 µM (inactive) | > 100 µM (inactive) | > 100 µM (inactive) | – | – | – | > 100 µM (inactive) | – | > 100 µM (inactive)
O=C(O)C1=NN=C(C(=O)O)NN1 | > 100 µM (inactive) | > 100 µM (inactive) | > 100 µM (inactive) | – | > 100 µM (inactive) | > 100 µM (inactive) | 79.4 µM (inactive) | > 100 µM (inactive) | > 100 µM (inactive) | > 100 µM (inactive) | > 100 µM (inactive) | > 100 µM (inactive) | – | > 100 µM (inactive) | – | > 100 µM (inactive) | – | –
